According to US20060069132A1, “Azolecarboxamide herbicides” (priority 2004, published 2006):

Key:
[1] = tested on: giant foxtail; experiment: Test C pre-/postemergence herbicide test; assay type: in vivo, Setaria faberi; conditions: preemergence
Outline: (§1)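 Visual ratings on a 0–100 scale (100 = complete control) made versus untreated controls after 12 to 14 greenhouse days. Test chemicals, formulated in surfactant-containing non-phytotoxic solvent, applied preemergence to planted seeds or postemergence to 1- to 4-leaf plants (2 to 18 cm).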

[2] = tested on: kochia; experiment: Test C pre-/postemergence herbicide test; assay type: in vivo, Kochia scoparia; conditions: preemergence
Outline: as §1

[3] = tested on: ducksalad; experiment: Test B flooded paddy test; assay type: in vivo, Heteranthera limosa; conditions: 1000 g ai/ha, scale 0 to 100 (0 no effect, 100 complete control)
Outline: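 Plants grow to 1- to 4-leaf stage (2–18 cm) for postemergence spraying, or to 2-leaf stage for the paddy test. Formulated compound is applied. Greenhouse holding lasts 13–15 days. Response is scored visually relative to controls, 0 no effect to 100 complete control; a dash means no result.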

[4] = tested on: corn; experiment: Test B pre-/postemergence herbicide test; assay type: in vivo, Zea mays; conditions: for Plant response rating (0 to 100 scale), Corn: 0 is no effect
Outline: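 Formulation: non-phytotoxic solvent mix with surfactant. Timing: preemergence on seed and postemergence on 2–18 cm plants, applied concurrently. Readout after 13–15 d greenhouse: visual 0–100 control rating against controls.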

[5] = tested on: cocklebur; experiment: Test C pre-/postemergence herbicide test; assay type: in vivo, Xanthium strumarium; conditions: for Plant response rating, Cocklebur / Plant response rating (0 = no effect, 100 = complete control), Cocklebur: preemergence
Outline: as §1

[6] = tested on: velvetleaf; experiment: Test C pre-/postemergence herbicide test; assay type: in vivo, Abutilon theophrasti; conditions: preemergence; for Plant response rating (0 = no effect, 100 = complete control), Velvetleaf: 125 g ai/ha
Outline: as §1

[7] = tested on: velvetleaf; experiment: Test A pre-/postemergence herbicide test; assay type: in vivo, Abutilon theophrasti
Outline: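 Visual injury scores on a 0–100 scale (100 = complete control) taken about ten days post-treatment in greenhouse against untreated controls; dash means no result. Treatments: preemergence soil spray and postemergence spray to runoff on one- to two-leaf plants 2 to 10 cm tall, surfactant-containing formulation.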

[8] = tested on: corn; experiment: Test C pre-/postemergence herbicide test; assay type: in vivo, Zea mays; conditions: preemergence
Outline: as §1

[9] = 125 g ai/ha, scale 0 (no effect) to 100 (complete control), visual, 12 to 14 days
[10] = 500 g ai/ha, scale 0 to 100 (0 no effect, 100 complete control), visual, 12 to 14 days
[11] = postemergence, 500 g ai/ha, scale 0 to 100, 0 is no effect, 100 is complete control
[12] = 125 g ai/ha, 100 is complete control, preemergence
[13] = 125 g ai/ha, visual rating, scale 0 (no effect) to 100 (complete control), postemergence
[14] = Postemergence, 500 g ai/ha, scale 0 (no effect) to 100 (complete control)
[15] = postemergence, 125 g ai/ha, scale 0 to 100

| Structure (SMILES) | Plant response rating, Foxtail, Giant ([1]; 62 g ai/ha, scale 0 to 100) | Plant response rating, Foxtail, Giant ([1]; 250 g ai/ha, scale 0-100) | Plant response rating, Foxtail, Giant [1, 10] | Plant response rating, Kochia ([2]; 62 g ai/ha, scale 0 to 100) | Plant response rating, Kochia ([2]; 250 g ai/ha, scale 0-100) | Plant response rating, Kochia [2, 10] | Ducksalad plant response rating [3] | Plant response rating, Cocklebur ([5]; 62 g ai/ha, scale 0 to 100) | Plant response rating, Cocklebur ([5]; 250 g ai/ha, scale 0-100) | Plant response rating, Velvetleaf ([6]; 62 g ai/ha, scale 0 to 100) | Plant response rating, Velvetleaf [6, 10] | Plant response rating, Corn ([8]; 250 g ai/ha, scale 0-100) | Plant response rating, Corn [8, 10] | Plant response rating (0 = no effect, 100 = complete control), Foxtail, Giant ([1]; 125 g ai/ha) | Plant response rating (0 = no effect, 100 = complete control), Kochia ([2]; 125 g ai/ha) | Plant response rating (0 to 100 scale), Corn [4, 12] | Plant response rating (0 = no effect, 100 = complete control), Cocklebur ([5]; 125 g ai/ha) | Plant response rating, Cocklebur [5, 10] | Plant response rating (0 = no effect, 100 = complete control), Velvetleaf [6] | Plant response rating, Corn ([8]; 62 g ai/ha, scale 0 to 100) | also measured |
| --- | --- | --- | --- | --- | --- | --- | --- | --- | --- | --- | --- | --- | --- | --- | --- | --- | --- | --- | --- | --- | --- |
| CCNC(=O)c1ccc(F)c(NC(=O)C2CC(C(C)(C)C)=NN2CC)c1 (racemic) [Compound 269] | 50 | 100 | 100 | 70 | 100 | 100 | 80 | 0 | 5 | 5 | 80 | 40 | 55 |  |  |  |  |  |  |  | Plant response rating, Foxtail, Giant [1, 9]: 90; Plant response rating, Kochia [2, 9]: 100; Corn plant response rating (0 to 100 scale) ([4]; 125 g ai/ha, 0 = no effect, 100 = complete control, preemergence): 60; Plant response rating, Corn ([4]; 500 g ai/ha, visual rating, 0 = no effect, 100 = complete control, preemergence): 80; Corn plant response rating ([4]; postemergence, 125 g ai/ha, visual rating, scale 0 (no effect) to 100 (complete control)): 10; Corn plant response rating [4, 11]: 30; Plant response rating, Cocklebur [5, 9]: 0; Cocklebur plant response rating ([5]; Preemergence, 500 g ai/ha, scale 0 to 100, 0 no effect, 100 complete control): 50; Plant response rating, Velvetleaf ([6]; 250 g ai/ha, scale 0-100): 75; Velvetleaf plant response rating ([7]; Postemergence, 500 g ai/ha, 0 to 100 scale, 0 no effect, 100 complete control): 25; Plant response rating, Velvetleaf ([7]; Postemergence, 2000 g ai/ha, 0 to 100 scale, 0 no effect, 100 complete control): 30; Velvetleaf plant response rating ([7]; Preemergence, 2000 g ai/ha, visual rating, 0 to 100 scale (0 no effect, 100 complete control)): 100; Velvetleaf plant response rating ([7]; preemergence, 500 g ai/ha, visual injury, 0 to 100 scale (0 no effect, 100 complete control)): 40; Plant response rating, Corn [8, 9]: 20 |
| C=CCNC(=O)c1cccc(NC(=O)c2nn(C(C)C)nc2CC)c1 [Compound 382] | 60 | 100 | 100 | 0 | 95 | 100 | 80 | 0 | 20 | 100 | 100 | 55 | 60 | 90 | 20 | 0 | 15 | 45 | 100 | 0 | Corn plant response rating [4, 13]: 0; Corn plant response rating [4, 11]: 0; Plant response rating, Velvetleaf ([6]; 250 g ai/ha, scale 0-100): 100; Plant response rating (0 = no effect, 100 = complete control), Corn ([8]; 125 g ai/ha): 50 |
| CCc1nn(C(C)C)nc1C(=O)Nc1cccc(C(=O)N2CCCCC2)c1 [Compound 385] | 40 | 95 | 100 | 0 | 85 | 100 | 80 | 0 | 100 | 50 | 100 |  |  | 80 | 70 | 30 | 0 | 100 | 85 | 0 | Corn plant response rating [4, 13]: 10; Corn plant response rating [4, 11]: 10; Plant response rating, Velvetleaf ([6]; 250 g ai/ha, scale 0-100): 100 |
| CCc1nn(C(C)C)nc1C(=O)Nc1cccc(C(=O)N(C)CC)c1 [Compound 386] | 80 | 90 | 100 | 30 | 100 | 100 | 90 | 0 | 30 | 70 | 100 | 80 | 85 | 90 | 100 | 40 | 20 | 70 | 100 | 10 | Corn plant response rating [4, 13]: 0; Corn plant response rating [4, 11]: 10; Plant response rating, Velvetleaf ([6]; 250 g ai/ha, scale 0-100): 100; Plant response rating (0 = no effect, 100 = complete control), Corn ([8]; 125 g ai/ha): 60 |
| CCc1nn(C(C)C)nc1C(=O)Nc1cccc(C(=S)N(C)C)c1 [Compound 409] | 30 | 95 | 95 |  | 85 | 95 | 70 | 0 | 70 | 5 | 100 | 75 | 80 | 85 | 70 | 50 | 30 | 80 | 30 | 0 | Corn plant response rating [4, 14]: 10; Corn plant response rating [4, 15]: 0; Plant response rating (0 = no effect, 100 = complete control), Corn ([8]; 125 g ai/ha): 5 |
| Cc1nn(C(C)(C)C)nc1C(=O)Nc1cccc(C(=S)N(C)C)c1 [Compound 419] | 75 | 95 | 100 | 90 | 100 | 100 | 70 | 0 | 45 | 100 | 100 | 0 | 40 | 85 | 95 | 70 | 25 | 70 | 100 | 0 | Corn plant response rating [4, 14]: 30; Corn plant response rating [4, 15]: 20; Plant response rating (0 = no effect, 100 = complete control), Corn ([8]; 125 g ai/ha): 0 |
| CCNC(=S)c1cccc(NC(=O)c2nn(C(C)(C)C)nc2C)c1 [Compound 420] | 20 | 100 | 100 | 70 | 100 | 100 | 80 | 0 | 15 | 80 | 100 | 10 | 40 | 90 | 85 | 70 | 0 | 70 | 100 | 0 | Corn plant response rating [4, 14]: 20; Corn plant response rating [4, 15]: 20; Plant response rating (0 = no effect, 100 = complete control), Corn ([8]; 125 g ai/ha): 0 |
